Test results: patent publication US20240108006A1, “PESTICIDALLY ACTIVE HETEROAROMATIC COMPOUNDS” (SYNGENTA CROP PROTECTION AG, priority 2021, published 2024)

How the values were obtained:
Assay type in all cases: in vivo
Plutella xylostella = experiment: Example B8: Plutella xylostella (diamond back moth), artificial diet 24-well, eggs; settings: 192 h, application rate of 200 ppm, 8 days after infestation, read-out: effect in at least one of the two categories (mortality or growth inhibition)
Method in brief: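 Plutella eggs placed onto dried, compound-treated artificial diet, the aqueous test solutions diluted from 10,000 ppm DMSO stocks. Eight days post-infestation, larvae rated for mortality and growth inhibition relative to untreated controls.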

Chilo suppressalis = experiment: Example B1: Chilo suppressalis (striped rice stemborer), artificial diet, L2 larvae; settings: 144 h, application rate of 200 ppm, 6 days after infestation, read-out: control in at least one of the three categories (mortality, anti-feedant effect, or growth inhibition)
Method in brief: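 L2 larvae (6-8 per well) were placed on dried artificial diet that had been dosed with aqueous dilutions of 10,000 ppm DMSO stock solutions. After 6 days, control was credited if mortality, antifeedant effect or growth inhibition was higher than in untreated samples.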

Spodoptera littoralis = experiment: Example B9: Spodoptera littoralis (Egyptian cotton leaf worm), cotton leaf discs, L1 larvae; settings: foliar, 72 h, application rate of 200 ppm, 3 days after infestation, read-out: control in at least one of the three categories (mortality, anti-feedant effect, or growth inhibition)
Experimental: Example B9: Spodoptera littoralis (Egyptian Cotton Leaf Worm)
Cotton leaf discs were placed onto agar in 24-well microtiter plates and sprayed with aqueous test solutions prepared from 10,000 ppm DMSO stock solutions. After drying the leaf discs were infested with five L1 larvae. The samples were assessed for mortality, anti-feeding effect, and growth inhibition in comparison to untreated samples 3 days after infestation. Control of Spodoptera littoralis by a test sample is given when at least one of the categories mortality, anti-feedant effect, and growth inhibition is higher than the untreated sample.

C[C@H](NC(=O)Nc1ccc(C(F)(F)F)cc1I)c1ncnn1-c1ccc(C#N)cn1 [Example P256, 1-[(1S)-1-[2-(5-cyano-2-pyridyl)-1,2,4-triazol-3-yl]ethyl]-3-[2-iodo-4-(trifluoromethyl)phenyl]urea]
≥ 80%: percent effect (mortality or growth inhibition) at 200 ppm (Plutella xylostella) | percent control (mortality, anti-feedant effect or growth inhibition) at 200 ppm (Chilo suppressalis) | percent control (mortality, anti-feedant effect or growth inhibition) at 200 ppm (Spodoptera littoralis)

CC(NC(=O)Nc1ccc(C(F)(F)F)cc1I)c1nccnc1-n1nccn1 (stereo not drawn) [Example P263, 1-[2-iodo-4-(trifluoromethyl)phenyl]-3-[1-[3-(triazol-2-yl)pyrazin-2-yl]ethyl]urea]
≥ 80%: percent effect (mortality or growth inhibition) at 200 ppm (Plutella xylostella) | percent control (mortality, anti-feedant effect or growth inhibition) at 200 ppm (Chilo suppressalis) | percent control (mortality, anti-feedant effect or growth inhibition) at 200 ppm (Spodoptera littoralis)

C[C@H](NC(=O)Nc1cc(C(F)(F)F)ccc1Br)c1ncnn1-c1ncccn1 [Example P70, 1-[2-bromo-5-(trifluoromethyl)phenyl]-3-[(1S)-1-(2-pyrimidin-2-yl-1,2,4-triazol-3-yl)ethyl]urea]
≥ 80%: percent effect (mortality or growth inhibition) at 200 ppm (Plutella xylostella) | percent control (mortality, anti-feedant effect or growth inhibition) at 200 ppm (Chilo suppressalis) | percent control (mortality, anti-feedant effect or growth inhibition) at 200 ppm (Spodoptera littoralis)

C[C@H](NC(=O)Nc1cc(F)c(Br)cc1Cl)c1ncnn1-c1ncccn1 [Example P314, 1-(4-bromo-2-chloro-5-fluoro-phenyl)-3-[(1S)-1-(2-pyrimidin-2-yl-1,2,4-triazol-3-yl)ethyl]urea]
≥ 80%: percent effect (mortality or growth inhibition) at 200 ppm (Plutella xylostella) | percent control (mortality, anti-feedant effect or growth inhibition) at 200 ppm (Chilo suppressalis) | percent control (mortality, anti-feedant effect or growth inhibition) at 200 ppm (Spodoptera littoralis)

C[C@H](NC(=O)Nc1cc(Cl)c(Cl)cc1F)c1ncnn1-c1ncccn1 [Example P118, 1-(4,5-dichloro-2-fluoro-phenyl)-3-[(1S)-1-(2-pyrimidin-2-yl-1,2,4-triazol-3-yl)ethyl]urea]
≥ 80%: percent effect (mortality or growth inhibition) at 200 ppm (Plutella xylostella) | percent control (mortality, anti-feedant effect or growth inhibition) at 200 ppm (Chilo suppressalis) | percent control (mortality, anti-feedant effect or growth inhibition) at 200 ppm (Spodoptera littoralis)

C[C@H](NC(=O)Nc1cc(O)c(Cl)cc1Cl)c1ncnn1-c1ncccn1 [Example P237, 1-(2,4-dichloro-5-hydroxy-phenyl)-3-[(1S)-1-(2-pyrimidin-2-yl-1,2,4-triazol-3-yl)ethyl]urea]
≥ 80%: percent effect (mortality or growth inhibition) at 200 ppm (Plutella xylostella) | percent control (mortality, anti-feedant effect or growth inhibition) at 200 ppm (Chilo suppressalis) | percent control (mortality, anti-feedant effect or growth inhibition) at 200 ppm (Spodoptera littoralis)

CC(NC(=O)Nc1cc(C(F)(F)F)c(Cl)cc1Br)c1nccnc1-c1ncccn1 (stereo not drawn) [Example P240, 1-[2-bromo-4-chloro-5-(trifluoromethyl)phenyl]-3-[1-(3-pyrimidin-2-ylpyrazin-2-yl)ethyl]urea]
≥ 80%: percent effect (mortality or growth inhibition) at 200 ppm (Plutella xylostella) | percent control (mortality, anti-feedant effect or growth inhibition) at 200 ppm (Chilo suppressalis) | percent control (mortality, anti-feedant effect or growth inhibition) at 200 ppm (Spodoptera littoralis)

C[C@H](NC(=S)Nc1ccc(C(F)(F)F)cc1Cl)c1ncnn1-c1ncccn1 [Example P129, 1-[2-chloro-4-(trifluoromethyl)phenyl]-3-[(1S)-1-(2-pyrimidin-2-yl-1,2,4-triazol-3-yl)ethyl]thiourea]
≥ 80%: percent effect (mortality or growth inhibition) at 200 ppm (Plutella xylostella) | percent control (mortality, anti-feedant effect or growth inhibition) at 200 ppm (Chilo suppressalis) | percent control (mortality, anti-feedant effect or growth inhibition) at 200 ppm (Spodoptera littoralis)

C[C@H](NC(=O)Nc1cc(C(F)(F)F)c(Cl)cc1Br)c1ncnn1-c1ccc(C#N)cn1 [Example P253, 1-[2-bromo-4-chloro-5-(trifluoromethyl)phenyl]-3-[(1S)-1-[2-(5-cyano-2-pyridyl)-1,2,4-triazol-3-yl]ethyl]urea]
≥ 80%: percent effect (mortality or growth inhibition) at 200 ppm (Plutella xylostella) | percent control (mortality, anti-feedant effect or growth inhibition) at 200 ppm (Chilo suppressalis) | percent control (mortality, anti-feedant effect or growth inhibition) at 200 ppm (Spodoptera littoralis)

CC(NC(=O)Nc1cnc(C(F)(F)F)cc1Cl)c1nccnc1-n1nccn1 (stereo not drawn) [Example P264, 1-[4-chloro-6-(trifluoromethyl)-3-pyridyl]-3-[1-[3-(triazol-2-yl)pyrazin-2-yl]ethyl]urea]
≥ 80%: percent effect (mortality or growth inhibition) at 200 ppm (Plutella xylostella) | percent control (mortality, anti-feedant effect or growth inhibition) at 200 ppm (Chilo suppressalis) | percent control (mortality, anti-feedant effect or growth inhibition) at 200 ppm (Spodoptera littoralis)

C[C@H](NC(=O)Nc1cnc(Cl)cc1I)c1ncnn1-c1ncccn1 [Example P271, 1-(6-chloro-4-iodo-3-pyridyl)-3-[(1S)-1-(2-pyrimidin-2-yl-1,2,4-triazol-3-yl)ethyl]urea]
≥ 80%: percent effect (mortality or growth inhibition) at 200 ppm (Plutella xylostella) | percent control (mortality, anti-feedant effect or growth inhibition) at 200 ppm (Chilo suppressalis) | percent control (mortality, anti-feedant effect or growth inhibition) at 200 ppm (Spodoptera littoralis)

CNC(=O)c1cnc(-n2ncnc2[C@H](C)NC(=O)Nc2cc(C(F)(F)F)c(Cl)cc2Cl)s1 [Example P395, 2-[5-[(1S)-1-[[2,4-dichloro-5-(trifluoromethyl)phenyl]carbamoyl-amino]ethyl]-1,2,4-triazol-1-yl]-N-methyl-thiazole-5-carboxamide]
≥ 80%: percent effect (mortality or growth inhibition) at 200 ppm (Plutella xylostella) | percent control (mortality, anti-feedant effect or growth inhibition) at 200 ppm (Chilo suppressalis) | percent control (mortality, anti-feedant effect or growth inhibition) at 200 ppm (Spodoptera littoralis)

C[C@H](NC(=O)Nc1cc(Br)c(F)cc1Cl)c1ncnn1-c1ncccn1 [Example P388, 1-(5-bromo-2-chloro-4-fluoro-phenyl)-3-[(1S)-1-(2-pyrimidin-2-yl-1,2,4-triazol-3-yl)ethyl]urea]
≥ 80%: percent effect (mortality or growth inhibition) at 200 ppm (Plutella xylostella) | percent control (mortality, anti-feedant effect or growth inhibition) at 200 ppm (Chilo suppressalis) | percent control (mortality, anti-feedant effect or growth inhibition) at 200 ppm (Spodoptera littoralis)

C[C@H](NC(=O)Nc1cc(OC(F)(F)C(F)F)c(Cl)cc1Cl)c1ncnn1-c1ncc(C(=O)N(C)C)s1 [Example P396, 2-[5-[(1S)-1-[[2,4-dichloro-5-(1,1,2,2-tetrafluoroethoxy)phenyl]carbamoyl-amino]ethyl]-1,2,4-triazol-1-yl]-N,N-dimethyl-thiazole-5-carboxamide]
≥ 80%: percent effect (mortality or growth inhibition) at 200 ppm (Plutella xylostella) | percent control (mortality, anti-feedant effect or growth inhibition) at 200 ppm (Chilo suppressalis) | percent control (mortality, anti-feedant effect or growth inhibition) at 200 ppm (Spodoptera littoralis)

C[C@H](NC(=O)Nc1cc(C(F)(F)F)c(Cl)cc1Cl)c1ncnn1-c1ccc(C#N)cn1 [Example P173, 1-[(1S)-1-[2-(5-cyano-2-pyridyl)-1,2,4-triazol-3-yl]ethyl]-3-[2,4-dichloro-5-(trifluoromethyl)phenyl]urea]
≥ 80%: percent effect (mortality or growth inhibition) at 200 ppm (Plutella xylostella) | percent control (mortality, anti-feedant effect or growth inhibition) at 200 ppm (Chilo suppressalis) | percent control (mortality, anti-feedant effect or growth inhibition) at 200 ppm (Spodoptera littoralis)

C[C@H](NC(=O)Nc1ccc(Cl)c(C(F)(F)F)c1)c1nccnc1-c1ccc(C#N)cn1 [Example P7, 1-[4-chloro-3-(trifluoromethyl)phenyl]-3-[(1S)-1-[3-(5-cyano-2-pyridyl)pyrazin-2-yl]ethyl]urea]
≥ 80%: percent effect (mortality or growth inhibition) at 200 ppm (Plutella xylostella) | percent control (mortality, anti-feedant effect or growth inhibition) at 200 ppm (Chilo suppressalis) | percent control (mortality, anti-feedant effect or growth inhibition) at 200 ppm (Spodoptera littoralis)

C[C@H](NC(=O)Nc1cc(OC(F)(F)C(F)F)c(Cl)cc1Cl)c1ncnn1-c1ccc(C#N)cn1 [Example P251, 1-[(1S)-1-[2-(5-cyano-2-pyridyl)-1,2,4-triazol-3-yl]ethyl]-3-[2,4-dichloro-5-(1,1,2,2-tetrafluoroethoxy)phenyl]urea]
≥ 80%: percent effect (mortality or growth inhibition) at 200 ppm (Plutella xylostella) | percent control (mortality, anti-feedant effect or growth inhibition) at 200 ppm (Chilo suppressalis) | percent control (mortality, anti-feedant effect or growth inhibition) at 200 ppm (Spodoptera littoralis)

CC(NC(=O)Nc1ccc(C(F)(F)F)cc1I)c1nccnc1-c1ncccn1 (stereo not drawn) [Example P243, 1-[2-iodo-4-(trifluoromethyl)phenyl]-3-[1-(3-pyrimidin-2-ylpyrazin-2-yl)ethyl]urea]
≥ 80%: percent effect (mortality or growth inhibition) at 200 ppm (Plutella xylostella) | percent control (mortality, anti-feedant effect or growth inhibition) at 200 ppm (Chilo suppressalis) | percent control (mortality, anti-feedant effect or growth inhibition) at 200 ppm (Spodoptera littoralis)

COc1cc(NC(=O)N[C@@H](C)c2ncnn2-c2ncccn2)c(Cl)cc1Br [Example P351, 1-(4-bromo-2-chloro-5-methoxy-phenyl)-3-[(1S)-1-(2-pyrimidin-2-yl-1,2,4-triazol-3-yl)ethyl]urea]
≥ 80%: percent effect (mortality or growth inhibition) at 200 ppm (Plutella xylostella) | percent control (mortality, anti-feedant effect or growth inhibition) at 200 ppm (Chilo suppressalis) | percent control (mortality, anti-feedant effect or growth inhibition) at 200 ppm (Spodoptera littoralis)

C[C@H](NC(=O)Nc1ccc(C(F)(F)F)cc1I)c1nccnc1-c1ccc(C#N)cn1 [Example P249, 1-[(1S)-1-[3-(5-cyano-2-pyridyl)pyrazin-2-yl]ethyl]-3-[2-iodo-4-(trifluoromethyl)phenyl]urea]
≥ 80%: percent effect (mortality or growth inhibition) at 200 ppm (Plutella xylostella) | percent control (mortality, anti-feedant effect or growth inhibition) at 200 ppm (Chilo suppressalis) | percent control (mortality, anti-feedant effect or growth inhibition) at 200 ppm (Spodoptera littoralis)
